Data reported in patent US10494368B2, “Pesticidally active tetracyclic derivatives with sulfur containing substituents” (Syngenta Participations AG, priority 2015, dated 2019).

Columns and labels:
Type in all cases: in vivo
[1] = tested on: Myzus persicae (Green Peach Aphid); assay: Myzus persicae feeding/contact activity on sunflower leaf discs; details: foliar, 144 h, application rate 200 ppm, aphid population of mixed ages on sunflower leaf discs, 6 days after infestation
Description: Feeding/Contact activity Sunflower leaf discs were placed onto agar in a 24-well microtiter plate and sprayed with aqueous test solutions prepared from 10′000 ppm DMSO stock solutions. After drying, the leaf discs were infested with an aphid population of mixed ages. The samples were assessed for mortality 6 days after infestation.

[2] = tested on: Diabrotica Balteata (Corn Root Worm); assay: Diabrotica balteata on maize sprouts, spray; details: 96 h, application rate 200 ppm, L2 larvae on maize sprouts, 4 days after infestation, read-out: effect in at least one of the two categories (mortality or growth inhibition)
Description: Maize sprouts placed onto an agar layer in 24-well microtiter plates were treated with aqueous test solutions prepared from 10′000 ppm DMSO stock solutions by spraying. After drying, the plates were infested with L2 larvae (6 to 10 per well). The samples were assessed for mortality and growth inhibition in comparison to untreated samples 4 days after infestation.
(§1) The following compounds gave an effect of at least 80% in at least one of the two categories (mortality or growth inhibition) at an application rate of 200 ppm: […]

[3] = tested on: Plutella xylostella (Diamond Back Moth); assay: Plutella xylostella on artificial diet; details: 120 h, application rate 200 ppm, L2 larvae on artificial diet, 5 days after infestation, read-out: effect in at least one of the two categories (mortality or growth inhibition)
Description: 24-well microtiter plates with artificial diet were treated with aqueous test solutions prepared from 10′000 ppm DMSO stock solutions by pipetting. After drying, the plates were infested with L2 larvae (10 to 15 per well). The samples were assessed for mortality and growth inhibition in comparison to untreated samples 5 days after infestation.
as §1

[4] = tested on: Spodoptera littoralis (Egyptian Cotton Leaf Worm); assay: Spodoptera littoralis on cotton leaf discs, spray; details: foliar, 72 h, application rate 200 ppm, L1 larvae on cotton leaf discs, 3 days after infestation
Description: Cotton leaf discs were placed onto agar in 24-well microtiter plates and sprayed with aqueous test solutions prepared from 10′000 ppm DMSO stock solutions. After drying the leaf discs were infested with five L1 larvae. The samples were assessed for mortality, anti-feeding effect, and growth inhibition in comparison to untreated samples 3 days after infestation. Control of Spodoptera littoralis by a test sample is given when at least one of the categories mortality, anti-feedant effect, and growth inhibition is higher than the untreated sample.

[5] = tested on: Euschistus heros (Neotropical Brown Stink Bug); assay: Euschistus heros on soybean leaves, spray; details: 120 h, application rate 200 ppm, N2 nymphs on soybean leaves, 5 days after infestation, read-out: effect in at least one of the two categories (mortality or growth inhibition)
Description: Soybean leaves on agar in 24-well microtiter plates were sprayed with aqueous test solutions prepared from 10′000 ppm DMSO stock solutions. After drying the leaves were infested with N2 nymphs. The samples were assessed for mortality and growth inhibition in comparison to untreated samples 5 days after infestation.
as §1

[6] = tested on: Bemisia tabaci (Cotton White Fly); assay: Bemisia tabaci feeding/contact activity on cotton leaf discs; details: foliar, 144 h, application rate 200 ppm, adult white flies on cotton leaf discs, 6 days after incubation
Description: Feeding/contact activity Cotton leaf discs were placed on agar in 24-well microtiter plates and sprayed with aqueous test solutions prepared from 10′000 ppm DMSO stock solutions. After drying the leaf discs were infested with adult white flies. The samples were checked for mortality 6 days after incubation.

[7] = tested on: Aedes aegypti (Yellow Fever Mosquito); assay: Aedes aegypti adult contact test on dried deposits; details: application rate 200 ppm in ethanol, adult females, after 48 h and/or 24 h
Description: Test solutions, at an application rate of 200 ppm in ethanol, were applied to 12 well tissue culture plates. Once the deposits were dry, five, two to five day old adult female Aedes aegypti were added to each well, and sustained with a 10% sucrose solution in a cotton wool plug. Assessment of knockdown was made one hour after introduction, and mortality was assessed at 24 and 48 hours after introduction.
The following compounds gave at least 80% control of Aedes aegypti after 48 h and/or 24 h: […]

[8] = tested on: Spodoptera littoralis (Egyptian Cotton Leaf Worm); assay: Spodoptera littoralis, uptake by lettuce roots from agar; details: 144 h, test rate 12.5 ppm, compound absorbed by lettuce roots, 6 days after infestation, read-out: effect in at least one of the three categories (mortality, anti-feeding, or growth inhibition)
From the text: Test compounds were applied by pipette from 10′000 ppm DMSO stock solutions into 24-well plates and mixed with agar. Lettuce seeds were placed onto the agar and the multi well plate was closed by another plate which contained also agar. After 7 days the compound was absorbed by the roots and the lettuce grew into the lid plate. The lettuce leaves were then cut off into the lid plate. Spodoptera eggs were pipetted through a plastic stencil onto a humid gel blotting paper and the lid plate was closed with it. The samples were assessed for mortality, anti-feedant effect and growth inhibition in comparison to untreated samples 6 days after infestation.
The following compounds gave an effect of at least 80% in at least one of the three categories (mortality, anti-feeding, or growth inhibition) at a test rate of 12.5 ppm: A3, A4, A5, A6, A8, A10, B3, B4, B5 and C2.

CCSc1c(-c2nc3cc(C(F)(F)F)cnc3n2C)sc2ccccc12 [Compound A1, 2-(3-ethylsulfanylbenzothiophen-2-yl)-3-methyl-6-(trifluoromethyl)imidazo[4,5-b]pyridine]
≥ 80%: mortality at 200 ppm [1] | percent effect (mortality or growth inhibition) at 200 ppm [2]

CCS(=O)(=O)c1c(-c2nc3cc(C(F)(F)F)cnc3n2C)sc2ccccc12 [Compound A2, 2-(3-ethylsulfonylbenzothiophen-2-yl)-3-methyl-6-(trifluoromethyl)imidazo [4,5-b] pyridine]
≥ 80%: percent effect (mortality or growth inhibition) at 200 ppm [3] | mortality at 200 ppm [1] | percent control (mortality, anti-feedant effect or growth inhibition) at 200 ppm [4] | percent effect (mortality or growth inhibition) at 200 ppm [5] | percent effect (mortality or growth inhibition) at 200 ppm [2]

CCS(=O)(=O)c1c(-c2nc3cc(SC(F)(F)F)cnc3n2C)sc2cc(Br)ccc12 [Compound A4, 2-(6-bromo-3-ethylsulfonyl-benzothiophen-2-yl)-3-methyl-6-(trifluoromethylsulfanyl)imidazo[4,5-b]pyridine]
≥ 80%: mortality at 200 ppm [6] | percent effect (mortality or growth inhibition) at 200 ppm [3] | pest or weed control at 200 ppm [7] | mortality at 200 ppm [1] | percent control (mortality, anti-feedant effect or growth inhibition) at 200 ppm [4] | percent effect (mortality or growth inhibition) at 200 ppm [5] | percent effect (mortality or growth inhibition) at 200 ppm [2] | percent effect (mortality, anti-feeding or growth inhibition) at 12.5 ppm [8]

CCSc1c(-c2nc3cc(C(F)(F)F)cnc3n2C)sc2cc(C(F)(F)F)ccc12 [Compound A5]
≥ 80%: percent effect (mortality or growth inhibition) at 200 ppm [3] | pest or weed control at 200 ppm [7] | percent control (mortality, anti-feedant effect or growth inhibition) at 200 ppm [4] | percent effect (mortality or growth inhibition) at 200 ppm [5] | percent effect (mortality or growth inhibition) at 200 ppm [2] | percent effect (mortality, anti-feeding or growth inhibition) at 12.5 ppm [8]

CCS(=O)(=O)c1c(-c2nc3cc(C(F)(F)F)cnc3n2C)sc2cc(C(F)(F)F)ccc12 [Compound A6]
≥ 80%: mortality at 200 ppm [6] | percent effect (mortality or growth inhibition) at 200 ppm [3] | pest or weed control at 200 ppm [7] | mortality at 200 ppm [1] | percent control (mortality, anti-feedant effect or growth inhibition) at 200 ppm [4] | percent effect (mortality or growth inhibition) at 200 ppm [5] | percent effect (mortality or growth inhibition) at 200 ppm [2] | percent effect (mortality, anti-feeding or growth inhibition) at 12.5 ppm [8]

CCSc1c(-c2nc3cc(C(F)(F)F)cnc3n2C)sc2cc(Br)ccc12 [Compound A7, 2-(6-bromo-3-ethylsulfanyl-benzothiophen-2-yl)-3-methyl-6-(trifluoromethyl)imidazo[4,5-b]pyridine]
≥ 80%: percent effect (mortality or growth inhibition) at 200 ppm [3] | pest or weed control at 200 ppm [7] | percent control (mortality, anti-feedant effect or growth inhibition) at 200 ppm [4] | percent effect (mortality or growth inhibition) at 200 ppm [5] | percent effect (mortality or growth inhibition) at 200 ppm [2]

CCS(=O)(=O)c1c(-c2nc3cc(C(F)(F)F)cnc3n2C)sc2cc(Br)ccc12 [Compound A8, 2-(6-bromo-3-ethylsulfonyl-benzothiophen-2-yl)-3-methyl-6-(trifluoromethyl)imidazo[4,5-b]pyridine]
≥ 80%: mortality at 200 ppm [6] | percent effect (mortality or growth inhibition) at 200 ppm [3] | pest or weed control at 200 ppm [7] | mortality at 200 ppm [1] | percent control (mortality, anti-feedant effect or growth inhibition) at 200 ppm [4] | percent effect (mortality or growth inhibition) at 200 ppm [5] | percent effect (mortality or growth inhibition) at 200 ppm [2] | percent effect (mortality, anti-feeding or growth inhibition) at 12.5 ppm [8]

CCS(=O)(=O)c1c(-c2nc3cc(C(F)(F)F)cnc3n2C)sc2cc(-n3ccc(C(F)(F)F)n3)ccc12 [Compound A9, 2-[3-ethylsulfonyl-6-[3-(trifluoromethyl)pyrazol-1-yl]benzothiophen-2-yl]-3-methyl-6-(trifluoromethyl)imidazo[4,5-b]pyridine]
≥ 80%: percent effect (mortality or growth inhibition) at 200 ppm [3] | percent control (mortality, anti-feedant effect or growth inhibition) at 200 ppm [4] | percent effect (mortality or growth inhibition) at 200 ppm [2]

CCS(=O)(=O)c1c(-c2nc3cc(C(F)(F)F)cnc3n2C)sc2cc(SC(F)(F)F)ccc12 [Compound A10, 2-[3-ethylsulfonyl-6-(trifluoromethylsulfanyl)benzothiophen-2-yl]-3-methyl-6-(trifluoromethyl)imidazo[4,5-b]pyridine]
≥ 80%: percent effect (mortality or growth inhibition) at 200 ppm [3] | pest or weed control at 200 ppm [7] | mortality at 200 ppm [1] | percent control (mortality, anti-feedant effect or growth inhibition) at 200 ppm [4] | percent effect (mortality or growth inhibition) at 200 ppm [5] | percent effect (mortality or growth inhibition) at 200 ppm [2] | percent effect (mortality, anti-feeding or growth inhibition) at 12.5 ppm [8]

CCS(=O)(=O)c1c(-c2nc3cc(C(F)(F)F)cnc3n2C)sc2cc(C3CC3)ccc12 [Compound A11, 2-(6-cyclopropyl-3-ethylsulfonyl-benzothiophen-2-yl)-3-methyl-6-(trifluoromethyl)imidazo[4,5-b]pyridine]
≥ 80%: percent effect (mortality or growth inhibition) at 200 ppm [3] | mortality at 200 ppm [1] | percent control (mortality, anti-feedant effect or growth inhibition) at 200 ppm [4] | percent effect (mortality or growth inhibition) at 200 ppm [5] | percent effect (mortality or growth inhibition) at 200 ppm [2]

CCS(=O)(=O)c1c(-c2nc3cc(C(F)(F)F)cnc3n2C)sc2cc(C(F)(F)C(F)(F)F)ccc12 [Compound A12]
≥ 80%: percent effect (mortality or growth inhibition) at 200 ppm [3] | pest or weed control at 200 ppm [7] | percent control (mortality, anti-feedant effect or growth inhibition) at 200 ppm [4] | percent effect (mortality or growth inhibition) at 200 ppm [5] | percent effect (mortality or growth inhibition) at 200 ppm [2]

CCS(=O)(=O)c1c(-c2nc3cnc(C(F)(F)F)cc3n2C)sc2ccccc12 [Compound B2, 2-(3-ethylsulfonylbenzothiophen-2-yl)-1-methyl-6-(trifluoromethyl)imidazo[4,5-c]pyridine]
≥ 80%: percent effect (mortality or growth inhibition) at 200 ppm [3] | mortality at 200 ppm [1] | percent control (mortality, anti-feedant effect or growth inhibition) at 200 ppm [4] | percent effect (mortality or growth inhibition) at 200 ppm [5] | percent effect (mortality or growth inhibition) at 200 ppm [2]

CCS(=O)(=O)c1c(-c2nc3cc(C(F)(F)F)ncc3n2C)sc2cc(C(F)(F)F)ccc12 [Compound B4, 2-[3-ethylsulfonyl-6-(trifluoromethyl)benzothiophen-2-yl]-3-methyl-6-(trifluoromethyl) imidazo[4,5-c]pyridine]
≥ 80%: mortality at 200 ppm [6] | percent effect (mortality or growth inhibition) at 200 ppm [3] | pest or weed control at 200 ppm [7] | mortality at 200 ppm [1] | percent control (mortality, anti-feedant effect or growth inhibition) at 200 ppm [4] | percent effect (mortality or growth inhibition) at 200 ppm [5] | percent effect (mortality or growth inhibition) at 200 ppm [2] | percent effect (mortality, anti-feeding or growth inhibition) at 12.5 ppm [8]

CCSc1c(-c2nc3cc(C(F)(F)F)ccc3n2C)sc2cc(C(F)(F)F)ccc12 [Compound C1]
≥ 80%: percent effect (mortality or growth inhibition) at 200 ppm [3] | percent control (mortality, anti-feedant effect or growth inhibition) at 200 ppm [4] | percent effect (mortality or growth inhibition) at 200 ppm [2]

CCS(=O)(=O)c1c(-c2nc3cc(C(F)(F)F)ccc3n2C)sc2cc(C(F)(F)F)ccc12 [Compound C2]
≥ 80%: mortality at 200 ppm [6] | percent effect (mortality or growth inhibition) at 200 ppm [3] | pest or weed control at 200 ppm [7] | percent control (mortality, anti-feedant effect or growth inhibition) at 200 ppm [4] | percent effect (mortality or growth inhibition) at 200 ppm [2] | percent effect (mortality, anti-feeding or growth inhibition) at 12.5 ppm [8]
